Reference: ChEMBL document CHEMBL5096183, “Contemporary advances of cyclic molecules proposed for inflammation” (Eur J Med Chem, 2021)
In brackets after ≈: the same amount, converted by molar mass.

Tests used:
[1] = tested on: Rattus norvegicus; assay: Acute anti-inflammatory activity against carrageenan induced paw edema in Albino rat at 20 mg/kg, po pretreated for 30 mins followed by carrageenan addition measured every hour for 3 hrs by plethysmography method relative to control; assay type: functional; settings: time 3.5 hrs
[2] = tested on: Rattus norvegicus; assay: Anti-inflammatory activity against Cotton pellets induced granuloma in Albino rat at 20 mg/kg, po administered for 7 days measured on day 8 by measuring pellet weight relative to control; assay type: functional; settings: time 8 day
[3] = Acute toxicity in PO dosed Wistar albino rat measured for 14 days; assay type: organism-based; settings: in vivo, time 14 day
[4] = tested on: Mus musculus; assay: Analgesic activity in albino […] mouse assessed as increase in reaction on paw licking at 100 mg/kg, po pretreated for 1 hrs followed by hot plate treatment measured after 90 mins by analgesiometer based analysis relative to control; assay type: functional; settings: time 2.5 hrs
[5] = tested on: Rattus norvegicus; assay: Anti-inflammatory activity against carrageenan-induced paw edema in po dosed Wistar rat pretreated for 1 hrs followed by carrageenan addition measured after 3 hrs; assay type: functional; settings: time 4 hrs
[6] = tested on: Rattus norvegicus; assay: Anti-inflammatory activity against carrageenan-induced paw oedema in 12 hrs fasted Albino rat assessed as inhibition of oedema formation administered intraperitoneally measured after 3 hrs relative to control; assay type: functional; settings: route ip
[7] = Ulcerogenic activity in 12 hrs fasted Albino rat assessed as ulcerogenic index at […] per day, po for 3 days; assay type: toxicity, organism-based; settings: in vivo, 72 h, time 3 day
[8] = tested on: Mus musculus; assay: Anti-inflammatory activity against Carrageenan-induced paw edema in Swiss albino mouse assessed as change in paw volume at 10 mg/kg, PO measured after 6 hrs by plethysmometric analysis relative to control; assay type: functional
[9] = tested on: Rattus norvegicus; assay: Antiulcer activity against ulceration induced albino Wistar rat assessed as ulcerogenic index pretreated daily at 25 mg/kg for 4 days followed by 24 hrs fasting prior to pylorus ligation measured after 4 hrs; assay type: functional; settings: time 124 hrs
[10] = tested on: Erythrocyte; assay: Anti-inflammatory against heat induced human red blood cells assessed as inhibition of heat induced hemolysis by measuring membrane stabilization for at 100 ug/ml incubated for 30 mins relative to control; assay type: functional; settings: 0.5 h
[11] = organism: Homo sapiens; assay: Inhibition of proteinase (unknown origin) at 100 ug/ml using casein as substrate preincubated for 5 mins followed by addition of substrate for 20 mins relative to control; settings: dose 100.0 µg/ml
[12] = tested on: Rattus norvegicus; assay: Anti-inflammatory activity against carrageenan-induced hind paw edema in rat at 20 mg/kg, PO measured after 5 hrs relative to control; assay type: functional
[13] = tested on: RAW264.7; assay: Anti-inflammatory activity against LPS induced mouse RAW264.7 cells assessed as suppression of TNFalpha cytokine level at 20 uM incubated for 24 hrs by ELISA assay relative to control; assay type: functional
[14] = tested on: Mus musculus; assay: Analgesic activity in hot plate induced thermal pain Swiss albino mouse model assessed as change in latency at 10 mg/kg, po measured at 1 to 2 hrs relative to control; assay type: functional; settings: time 1-2 hrs
[15] = tested on: Rattus norvegicus; assay: Anti-inflammatory activity against carrageenan-induced paw edema in Wistar albino rat model assessed as inhibition of paw edema at 20 mg/kg, PO relative to control; assay type: functional
[16] = tested on: Rattus norvegicus; assay: Anti-inflammatory activity against carrageenan-induced paw edema in Wistar rat at 20 mg/kg, po assessed as paw edema volume measured after 4 hrs by plethysmometric analysis relative to control; assay type: functional
[17] = tested on: Rattus norvegicus; assay: Anti-inflammatory activity against carrageenan-induced paw edema in PO dosed Wistar albino rat assessed as edema inhibition percentage measured for 2 hrs relative to control; assay type: functional
[18] = tested on: Rattus norvegicus; assay: Anti-inflammatory activity against carrageenan-induced paw edema in PO dosed Wistar albino rat measured after 2 hrs; assay type: functional
[19] = tested on: RAW264.7; assay: Anti-inflammatory against LPS induced mouse RAW 264.7 cells assessed as inhibition of IL-6 measured for 24 hrs by ELISA analysis; assay type: functional, cell-based; settings: RAW264.7, 24 h
[20] = tested on: RAW264.7; assay: Anti-inflammatory against LPS induced mouse RAW 264.7 cells assessed as inhibition of NO measured for 24 hrs by ELISA analysis; assay type: functional, cell-based; settings: RAW264.7, 24 h
[21] = tested on: RAW264.7; assay: Anti-inflammatory against LPS induced mouse RAW 264.7 cells assessed as inhibition of IL-1beta measured for 24 hrs by ELISA analysis; assay type: functional, cell-based; settings: RAW264.7, 24 h
[22] = target: T1, Seed linoleate 13S-lipoxygenase-1 (Glycine max, UniProt P08170); assay: Inhibition of soybean LOX-1 using linoleic acid as substrate measured for 3 mins
T1 sequence (P08170 whole entry): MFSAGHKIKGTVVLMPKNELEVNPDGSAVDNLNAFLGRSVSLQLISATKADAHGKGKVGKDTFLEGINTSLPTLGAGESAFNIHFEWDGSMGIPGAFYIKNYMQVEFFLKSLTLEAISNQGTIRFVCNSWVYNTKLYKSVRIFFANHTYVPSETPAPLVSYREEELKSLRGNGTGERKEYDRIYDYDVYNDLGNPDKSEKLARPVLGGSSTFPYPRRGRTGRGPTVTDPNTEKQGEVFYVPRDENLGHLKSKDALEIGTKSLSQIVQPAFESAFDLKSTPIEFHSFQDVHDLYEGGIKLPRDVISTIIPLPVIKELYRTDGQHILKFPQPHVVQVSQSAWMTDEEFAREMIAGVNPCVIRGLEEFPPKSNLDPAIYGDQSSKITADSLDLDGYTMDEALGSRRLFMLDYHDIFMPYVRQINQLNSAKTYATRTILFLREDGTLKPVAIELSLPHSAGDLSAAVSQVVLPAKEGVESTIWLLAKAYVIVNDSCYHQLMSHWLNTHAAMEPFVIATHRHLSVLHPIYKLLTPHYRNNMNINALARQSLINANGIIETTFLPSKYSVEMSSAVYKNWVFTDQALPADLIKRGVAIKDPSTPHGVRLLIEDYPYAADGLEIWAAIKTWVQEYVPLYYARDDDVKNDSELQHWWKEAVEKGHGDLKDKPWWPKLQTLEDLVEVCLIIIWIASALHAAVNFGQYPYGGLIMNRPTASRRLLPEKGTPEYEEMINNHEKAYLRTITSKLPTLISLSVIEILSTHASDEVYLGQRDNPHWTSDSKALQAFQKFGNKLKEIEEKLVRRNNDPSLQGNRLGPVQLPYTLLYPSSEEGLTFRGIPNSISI

[23] = Antioxidant activity assessed as DPPH radical scavenging activity incubated for 20 mins by UV spectrometric analysis; assay type: functional
[24] = target: T2, Seed linoleate 13S-lipoxygenase-1 (Glycine max) (UniProt P08170); assay: Binding affinity to soybean LOX-1 assessed as quenching ability by fluorescence based assay relative to control
T2 sequence (whole entry): T1 sequence (P08170 whole entry)

[25] = tested on: Rattus norvegicus; assay: Anti-inflammatory activity against carrageenan-induced paw edema in Albino rat assessed as percentage of protection at 50 mg/kg,po pretreated for 1 hrs followed by carrageenan addition measured after 4 hrs by plethysmography method relative to control; assay type: functional; settings: time 5 hrs
[26] = Inhibition of soy 15-LOX enzyme immunoassay; parameters: species or system Glycine max
[27] = tested on: Rattus norvegicus; assay: Anti-inflammatory activity against carrageenan-induced paw edema in Sprague-Dawley rat at 30 mg/kg, IP pretreated for 30 mins followed by carrageenan addition measured after 4 hrs relative to control; assay type: functional; settings: time 4.5 hrs
[28] = tested on: Rattus norvegicus; assay: Anti-inflammatory activity against carrageenan induced paw edema in rat assessed as inhibition of paw edema at 12.5 mg/kg,PO pretreated for 1 hrs followed by carrageenan addition for 4 hrs by plethysmographic analysis relative to control; assay type: functional; settings: time 5 hrs
[29] = tested on: Rattus norvegicus; assay: Anti-inflammatory activity against carrageenan-induced paw edema in Wistar albino rat at 10 mg/kg, po pretreated for 1 hr followed by carrageenan addition measured after 6 hrs by plethysmometer relative to control; assay type: functional; settings: time 7 hrs
[30] = tested on: Rattus norvegicus; assay: Anti-inflammatory activity against formalin-induced foot paw edema in Wistar rat assessed as oedema inhibition at 10 mg/kg,po measured after 1 hrs by plethysmometric analysis relative to control; assay type: functional
[31] = tested on: Rattus norvegicus; assay: Anti-inflammatory activity against formalin-induced foot paw edema in Wistar rat assessed as oedema inhibition at 10 mg/kg,po measured after 3 hrs by plethysmometric analysis relative to control; assay type: functional
[32] = tested on: Rattus norvegicus; assay: Anti-inflammatory activity against formalin-induced foot paw edema in Wistar rat assessed as oedema inhibition at 10 mg/kg,po measured after 6 hrs by plethysmometric analysis relative to control; assay type: functional
[33] = tested on: Rattus norvegicus; assay: Anti-inflammatory activity against carrageenan-induced paw edema in rat relative to control; assay type: functional
[34] = tested on: Rattus norvegicus; assay: Acute ulcerogenic activity in 18 hrs fasted Wistar rat at 60 mg/kg, po treated for 6 hrs relative to control; assay type: functional

O=C(CCN1CCN(c2ccc([N+](=O)[O-])cc2)CC1)Nc1ccc2oc(Cc3ccc(Cl)cc3)nc2c1
Activity [1]: 81.7% | Activity [2]: 44%

O=C(Cc1cn(-c2ccccc2)nc1O)Nc1ccccc1-c1cc(-c2ccc(Br)cc2)n(-c2ccccc2)n1
LD50 at 336 h [3]: 2000 mg/kg

O=C(CCc1nnc(-c2ccc(O)cc2)o1)N/N=C1\C(=O)Nc2ccccc21
Activity [4]: 84.11%

O=C(O)CC(O)(c1ccccc1)c1ccccc1
ED50 [5]: 15 µmol/kg

O=C(Nc1nc2ccccc2s1)C(Cc1cc2ccccc2[nH]1)N(C(=O)c1ccccc1)S(=O)(=O)c1ccc([N+](=O)[O-])cc1 (stereo not given)
inhibition (INH) [6]: 80% | Activity_index [7]: 0.82

COc1ccc(C2CC(c3ccc(F)cc3O)=NN2)cc1 (stereo not given)
Activity [8]: 54%

Cc1ccc(S(=O)(=O)N2CC(O)CC2C(=O)Nc2nc3ccccc3s2)cc1 (stereo not given)
inhibition (INH) [6]: 78% | Activity_index [7]: 0.89

Nc1cc(-c2ccccc2)nn1C(=O)c1csc(-c2ccccc2)n1
Activity [9]: 0.44

Clc1cc(Cl)c2cccc(-c3nc4ccccc4o3)c2n1
inhibition at 100 µg/mL [10]: 80.2% | inhibition [11]: 85.3%

O=C1/C(=C\c2ccc(F)cc2)C=C(c2ccc(F)cc2)N1Cc1ccccc1Cl
inhibition in vivo at 20 mg/kg [12]: 71.5% | Activity [13]: 60.9%

CC(C(=O)O)C(O)(c1ccccc1)c1ccccc1 (stereo not given)
ED50 [5]: 15 µmol/kg

CN(C)CCC(=O)Nc1ccc2oc(Cc3ccc(Cl)cc3)nc2c1
Activity [1]: 72% | Activity [2]: 48.4%

O=Cc1cc2cccc(-c3nc4ccccc4o3)c2nc1Cl
inhibition at 100 µg/mL [10]: 74.3% | inhibition [11]: 80.2%

CN1C(C(=O)Nc2ccccn2)=C(O)c2ccccc2S1(=O)=O [PIROXICAM]
inhibition in vivo at 10 mg/kg [14]: 75%

CCOC(=O)c1cc(N)n(C(=O)c2csc(-c3ccccc3)n2)n1
Activity [9]: 0.44

COc1cc(Cc2nc3cc(NC(=O)c4ccc(Cl)cc4)ccc3o2)cc(OC)c1OC
inhibition in vivo at 20 mg/kg [15]: 79.5%

COc1ccccc1OC(=O)c1cc(OC)c(OC)c(OC)c1
inhibition in vivo at 20 mg/kg [16]: 77.1%

CC1=NN(c2ccccc2C(=O)O)C(=O)/C1=N/Nc1ccc(S(N)(=O)=O)cc1
inhibition (INH) [17]: 54.54% | ED50 [18]: 44 µmol/kg

O=C1/C(=C\c2ccc(F)cc2)C=C(c2ccc(F)cc2)N1Cc1ccc(F)cc1
inhibition in vivo at 20 mg/kg [12]: 76.2% | Activity [13]: 65.03%

CN(C)c1cccc2c(S(=O)(=O)Oc3cccc4oc(=O)[nH]c34)cccc12
IC50 [19]: 8.61 µM | IC50 [20]: 17.7 µM | IC50 [21]: 20.1 µM

COCc1nc2ccc3occc3c2o1
IC50 [22]: 65.4 µM | IC50 [23]: 360 µg/mL (≈ 1770 µM) | Qmax [24]: 76.3%

CCc1nnc(-c2cc3cc([N+](=O)[O-])ccc3o2)o1
Activity [25]: 72%

Cc1ccc(Cl)c(Nc2ccccc2C(=O)O)c1Cl [MECLOFENAMATE SODIUM]
IC50 [26]: 5.64 µM

CCOC(=O)CSc1nnc(Cc2ccccc2)n1C1CCCCC1
inhibition in vivo at 30 mg/kg [27]: 62.5%

COc1ccc2c(c1)c(CC(=O)O)c(C)n2C(=O)c1ccc(Cl)cc1 [INDOMETHACIN]
inhibition in vivo at 20 mg/kg [12]: 81% | Activity [13]: 68.84% | Activity [4]: 85.84% | inhibition in vivo at 20 mg/kg [16]: 81.9%

S=c1oc(-c2csc(-c3ccccc3)n2)nn1CN1CCCCC1
Activity [9]: 0.44

O=C(CCN1CCN(c2cccc(Cl)c2Cl)CC1)Nc1ccc2oc(Cc3ccc(Cl)cc3)nc2c1
Activity [1]: 77.6% | Activity [2]: 39.3%

Cc1ccc(N(O)/N=N/c2ccc(S(=O)(=O)Nc3nc(C)cc(C)n3)cc2)cc1
inhibition in vivo at 12.5 mg/kg [28]: 97.1%

CC(C)Cc1ccc(C(C)C(=O)c2ccc(OCc3cn(Cc4ccc([N+](=O)[O-])cc4)nn3)cc2O)cc1 (stereo not given)
inhibition in vivo at 10 mg/kg [29]: 94.2%

C/C(=N/Nc1ccc(C(=O)O)cc1)c1cccc(N2C(=O)c3ccccc3C2=O)c1
inhibition in vivo at 10 mg/kg [30]: 29.2% | inhibition in vivo at 10 mg/kg [31]: 22.2% | inhibition in vivo at 10 mg/kg [32]: 29.2%

O=C(O)Cc1ccccc1Nc1c(Cl)cccc1Cl [DICLOFENAC]
Activity [33]: 85.6% | inhibition in vivo at 10 mg/kg [30]: 41.7% | inhibition in vivo at 10 mg/kg [31]: 40.7% | inhibition in vivo at 10 mg/kg [32]: 41.7% | inhibition in vivo at 12.5 mg/kg [28]: 94%

CC(C)Cc1ccc(C(C)C(=O)O)cc1 (stereo not given) [IBUPROFEN]
ED50 [5]: 15 µmol/kg | inhibition in vivo at 10 mg/kg [29]: 94.7% | Activity [34]: 69.5% | inhibition in vivo at 20 mg/kg [15]: 65.9%

O=C([O-])Cc1ccccc1Nc1c(Cl)cccc1Cl.[Na+] [DICLOFENAC SODIUM]
Activity [2]: 60.2% | Activity [34]: 64.7% | Activity [9]: 4.67

C(=N\c1ccccc1-c1nc2ccccc2o1)/c1cccs1
inhibition at 100 µg/mL [10]: 70.2% | inhibition [11]: 75.2%

Cc1ccc(-c2nnc(CCC(=O)N/N=C3\C(=O)Nc4ccccc43)o2)cc1
Activity [4]: 83.17%

COc1ccc(/C=C/C(=O)c2ccc(F)cc2O)cc1
Activity [8]: 54%
